Test results reported in patent publication US4482709A, “Inclusion compounds of cyclodextrin with sulfur-containing compounds” (Santen Pharmaceutical Co., Ltd., priority 1981, dated 1984).
Converted amounts (≈) assume the structure as drawn.

Assay: Solubility Test (solubility in water)
Type: physicochemical
Source text: Solubility in water of inclusion compound of cyclodextrin with compound A or compound C is shown below. As the result, the inclusion compound is extremely more soluble in water than the starting compound.

solubility [µg/mL]	Structure (SMILES)
1600 (≈ 5110 µM)	O=C(O)[C@@H]1CS[C@H](c2ccccc2O)N1C(=O)CCS [Compound A, (2R,4R)-2-(2-hydroxyphenyl)-3-(3-mercaptopropanoyl)-4-thiazolidinecarboxylic acid]
100 (≈ 160 µM)	O=C(O)[C@@H]1CSC(c2ccccc2O)N1C(=O)CCSSCCC(=O)N1C(c2ccccc2O)SC[C@H]1C(=O)O (stereo partly drawn) [Compound C, (4R,4'R)-3,3'-[3,3'-dithiobis(propanoyl)]bis[2-(2-hydroxyphenyl)-4-thiazolidinecarboxylic acid]]
